Reference: article PMC8424629, “Chemical “Butterfly Effect” Explaining the Coordination Chemistry and Antimicrobial Properties of Clavanin Complexes” (Inorganic Chemistry, 2021)
In brackets after ≈: the same amount, converted by molar mass. Blank lines part the entries; values can stand above or below the molecule they belong to.

Key:
[1] = tested on: Staphylococcus spp. (for S. aureus); set-up: method as in earlier work; settings: EUCAST/2021/01/01, ref 22 (SI), cited from earlier work; for MIC breakpoints R>: resistant breakpoint; for MIC breakpoints S≤: susceptible breakpoint
[2] = tested on: Enterococcus spp. (for E. faecalis); set-up: method as in earlier work; settings: EUCAST/2021/01/01, ref 22 (SI), cited from earlier work; for MIC breakpoints R>: resistant breakpoint; for MIC breakpoints S≤: susceptible breakpoint
[3] = tested on: Enterobacterales (for E. coli); set-up: method as in earlier work; settings: EUCAST/2021/01/01, ref 22 (SI), cited from earlier work; for MIC breakpoints R>: resistant breakpoint; for MIC breakpoints S≤: susceptible breakpoint
[4] = tested on: Candida albicans ATCC 10231; settings: ATCC 10231, 24 h
[5] = assay type: binding
Procedure: (§1) All peptides ([…]-COOH, […]-COOH, […]
(§2) were purchased from KareBay Biochem (USA) (certified purity: 98 %) and were used as received.
(§3) The carbonate-free stock solutions of 0.1 M NaOH were purchased from Sigma-Aldrich and then potentiometrically standardized with the primary standard potassium hydrogen phthalate (99.9 % purity). […]
(§4) Stability constants for proton, Zn(II) and Cu(II) complexes were calculated from pH -metric titration curves carried out over the pH range 2-11 at T = 298 K in water solution of 4 mM HClO 4 and ionic strength 40 mM (SDS), using a total volume of 3 ml. The potentiometric titrations were performed using a Metrohm Titrando 905 titrator and a Mettler Toledo InLab Micro comb ined pH electrode. The thermostabilized glass -cell was equipped with a magnetic stirring system, a microburette delivery tube and an inlet –outlet tube for argon.
(§5) Solutions were titrated with 0.1 M carbonate-free NaOH. The electrodes were calibrated daily f or hydrogen ion concentration by titrating HClO 4 with NaOH under the same experimental conditions as above. The purities and the exact concentrations of the ligand solutions were determined by the Gran method. 1 The ligand concentration was 0.5 mM. The Zn(II) and Cu(II) to ligand ratio was 1 : 1.
(§6) The standard potential and the slope of the electrode couple were computed by means of Glee 2 program. The HYPERQUAD 20063 program was used for the stability constant calculations. The standard deviations were computed by HYPERQUAD 2006 and refer to random errors only. The constants for the hydrolytic Zn(II ) species

[6] = assay type: physicochemical
Procedure: as §1, §2, §3, §4, §5, §6

[7] = tested on: MRSA Staphylococcus aureus ATCC 43300; settings: ATCC 43300, 24 h
[8] = tested on: Enterococcus faecalis ATCC 29212; settings: ATCC 29212, 24 h

SMILES: NCC[C@H](O)C(=O)N[C@@H]1C[C@H](N)[C@@H](O[C@H]2O[C@H](CN)[C@@H](O)[C@H](O)[C@H]2O)[C@H](O)[C@H]1O[C@H]1O[C@H](CO)[C@@H](O)[C@H](N)[C@H]1O [Amikacin]
MIC breakpoints R> [1]: > 8 µg/mL | MIC breakpoints S≤ [1]: ≤ 8 µg/mL

SMILES: CC1(C)S[C@@H]2[C@H](NC(=O)[C@H](N)c3ccc(O)cc3)C(=O)N2[C@H]1C(=O)O [Amoxicillin]
MIC breakpoints R> [2]: > 8 µg/mL | MIC breakpoints S≤ [2]: ≤ 4 µg/mL

SMILES: CC1(C)S[C@@H]2[C@H](NC(=O)[C@H](N)c3ccccc3)C(=O)N2[C@H]1C(=O)O [Ampicillin]
MIC breakpoints R> [2]: > 8 µg/mL | MIC breakpoints S≤ [2]: ≤ 4 µg/mL

SMILES: CC1=C(C(=O)O)N2C(=O)[C@@H](NC(=O)[C@H](N)c3ccc(O)cc3)[C@H]2SC1 [Cefadroxil]
MIC breakpoints R> [3]: > 16 µg/mL | MIC breakpoints S≤ [3]: ≤ 16 µg/mL

SMILES: CC1=C(C(=O)O)N2C(=O)[C@@H](NC(=O)[C@H](N)c3ccccc3)[C@H]2SC1 [Cefalexin]
MIC breakpoints R> [3]: > 16 µg/mL | MIC breakpoints S≤ [3]: ≤ 16 µg/mL

SMILES: O=C(N[C@H](CO)[C@H](O)c1ccc([N+](=O)[O-])cc1)C(Cl)Cl [Chloramphenicol]
MIC breakpoints R> [1]: > 8 µg/mL | MIC breakpoints S≤ [1]: ≤ 8 µg/mL

MIC [4]: 64 µg/mL (≈ 24 µM) | pKa, line CuH4L [5]: 4.99 | pKa, line CuH-1L [5]: 8.09 | pKa, line CuH-2L [5]: 10.66 | pKa, line CuHL [5]: 6.10 | pKa, line CuL [5]: 6.98 | pKa, species H2L [6]: 8.87 | pKa, species H3L [6]: 8.08 | pKa, species H4L [6]: 7.57 | pKa, species H5L [6]: 7.10 | pKa, species H6L [6]: 5.25 | pKa, species HL [6]: 10.72 | MIC [7]: 128 µg/mL (≈ 48 µM) | MIC [8]: 128 µg/mL (≈ 48 µM)
SMILES: CC[C@H](C)[C@H](NC(=O)[C@H](CCCCN)NC(=O)CNC(=O)[C@H](CC(C)C)NC(=O)[C@H](CC(C)C)NC(=O)[C@H](Cc1c[nH]cn1)NC(=O)[C@H](Cc1ccccc1)NC(=O)[C@@H](N)C(C)C)C(=O)N[C@H](C(=O)N[C@@H](Cc1c[nH]cn1)C(=O)N[C@@H](Cc1c[nH]cn1)C(=O)N[C@H](C(=O)NCC(=O)N[C@@H](CC(N)=O)C(=O)N[C@@H](Cc1ccccc1)C(=O)N[C@H](C(=O)N[C@@H](Cc1ccc(O)cc1)C(=O)NCC(=O)N[C@@H](Cc1ccccc1)C(=O)N[C@@H](CO)C(=O)N[C@@H](Cc1c[nH]cn1)C(=O)N[C@H](C(=O)N[C@@H](Cc1ccccc1)C(=O)O)C(C)C)C(C)C)C(C)C)[C@@H](C)CC [Clavanin C]

SMILES: C[C@@H]1O[C@@H]1P(=O)(O)O [Fosfomycin iv, Fosfomycin]
MIC breakpoints R> [1]: > 32 µg/mL | MIC breakpoints S≤ [1]: ≤ 32 µg/mL | MIC breakpoints R> [3]: > 32 µg/mL | MIC breakpoints S≤ [3]: ≤ 32 µg/mL
